Measured values from patent US4322423A, “4-Phenyl-4,5,6,7-tetrahydro-thieno(2,3-C)pyridines and salts thereof” (Boehringer Ingelheim GmbH, priority 1977, dated 1982).
Read-outs that look alike come from different tables or passages of the source.

Experiments:
[1] = system: hypothermic effect caused by reserpine; experiment: reserpine-antagonism, elimination of the hypothermic effect caused by reserpine; type: in vivo; details: Mus musculus, mice, oral, 17 hours after 2 mg/kg i.p. reserpine
Description: A further test for determining the anti-depressant activity is the reserpine-antagonism, the elimination of the hypothermic effect caused by reserpine. The test is carried out on mice, using 5 animals per dose. 17 Hours after i.p. administration of 2 mg/kg of reserpine, the body temperature is measured peripherally at a room temperature of 19° C. Afterwards, the test substance is administered orally, and the body temperature is measured after elapse of 1, 3, 5, and 7 hours. For each measurement a medium effective dose (ED50) is determined. This is the dose at which the body temperature of the animals treated with reserpine approaches the normal temperature of the untreated controls by 50%.

[2] = system: uptake of serotonine in the neurons; experiment: inhibition of serotonine uptake, synaptosomes from homogenized isolated cerebrum of the rat; type: biochemical; details: ten minutes at 37° C., 50% uptake inhibition, read-out: Serotinine inhibition IC 50
Description: (§1) It is known that various forms of depressions cause in certain sections of the brain a deficiency of biogenetic amines, especially of noradrenaline and serotonine; the biogenetic amines may be multiplied by inhibiting the uptake in the neurons. […] The test is performed on the homogenized, isolated cerebrum of the rat. A suspension of synaptosomes thus obtained is incubated with […] noradrenaline or serotonine and various concentrations of a solution of the test substance in water for ten minutes at 37° C. After completion of the incubation, the medium is separated by filtering, and the radioactivity of the suspension of synaptosomes is measured. A control test without test substance is made simultaneously in order to determine the quantity of uptake of the radioactive amines. The quantity of the test substance in mols which suffices for inhibiting 50% of the uptake is designated as IC 50.

[3] = system: uptake of noradrenaline in the neurons; experiment: inhibition of noradrenaline uptake, synaptosomes from homogenized isolated cerebrum of the rat; type: biochemical; details: ten minutes at 37° C., 50% uptake inhibition, read-out: Noradrenalin inhibition IC 50
Description: as §1

[4] = 1 hr., read-out: Reserpine antagonism ED50 after 1 hr.
[5] = 3 hrs., read-out: Reserpine antagonism ED50 after 3 hrs.
[6] = 5 hrs., read-out: Reserpine antagonism ED50 after 5 hrs.
[7] = 7 hrs., read-out: Reserpine antagonism ED50 after 7 hrs.

Row | Compound | ED50 [1, 4] [mg/kg] | ED50 [1, 5] [mg/kg] | ED50 [1, 6] [mg/kg] | ED50 [1, 7] [mg/kg] | IC50 [2] [µM] | IC50 [3] [µM]
1 | Cc1ccc(C2CN(C)Cc3sc(Cl)cc32)cc1.Cl (stereo not drawn) [2-chloro-4-(p-tolyl)-6-methyl-4,5,6,7-tetrahydro-thieno[2,3-c] pyridine hydrochloride] | 44 | 12.5 | 18 | 20 | > 10 | 0.9
2 | Cc1cc2c(s1)CN(C)CC2c1ccc(Br)cc1.Cl (stereo not drawn) [2,6-Dimethyl-4-(p-bromophenyl)-4,5,6,7-tetrahydro-thieno[2,3-c]pyridine hydrochloride] | 1.7 | 2.7 | 4.6 | 80 | 0.54 | 0.28
3 | CN1Cc2sc(Cl)cc2C(c2ccc(Cl)cc2)C1.Cl (stereo not drawn) [2-Chloro-4-(p-chloro-phenyl)-6-methyl-4,5,6,7-tetrahydro-thieno[2,3-c]pyridine hydrochloride] | 16 | 8.5 | 9.5 | 10 | 5.4 | 1.6
4 | CN1Cc2sc(Cl)cc2C(c2ccc(Br)cc2)C1.Cl (stereo not drawn) [2-chloro-4-(4-bromophenyl)-6-methyl-4,5,6,7-tetrahydro-thieno[2,3-c] pyridine hydrochloride] | 50 | 3 | 4.2 | 38 | 3.5 | 1
5 | Cc1cc2c(s1)CN(C)CC2c1ccccc1.Cl (stereo not drawn) [2,6-dimethyl-4-phenyl-4,5,6,7-tetrahydro-thieno[2,3-c]pyridine hydrochloride] | 19 | 25 | 80 | 80 | 80 | 0.56
6 | Cc1ccc(C2CN(C)Cc3sc(Br)cc32)cc1.Cl (stereo not drawn) [2-bromo-4-(p-tolyl)-6-methyl-4,5,6,7-tetrahydro thieno[2,3-c] pyridine hydrochloride] | 48 | 80 | 80 | 80 | 9 | 0.64
7 | CN1Cc2sc(Br)cc2C(c2ccc(Br)cc2)C1 (stereo not drawn) [2-bromo-4-(p-bromophenyl)-6-methyl-4,5,6,7-tetrahydro-thieno[2,3-c]pyridine] | 55 | 7.5 | 32 | 100 | 4.1 | 1.6
8 | CN1Cc2sc(Cl)cc2C(c2ccccc2)C1.Cl (stereo not drawn) [2-Chloro-4-phenyl-6-methyl-4,5,6,7-tetrahydro-thieno[2,3-c]pyridine hydrochloride] | 13 | 30 | 90 | 90 | > 10 | 1.4
